Data on one compound can be found in publication PMC10108392, “Rimonabant-Based Compounds Bearing Hydrophobic Amino Acid Derivatives as Cannabinoid Receptor Subtype 1 Ligands” (ACS Medicinal Chemistry Letters, 2023).

SMILES strings stand for the structures. Entries after “also recorded” stand apart in the source; their conditions may differ.

In assay [1] the target is T1, CB1R (Rattus norvegicus, UniProt P20272).
T1 construct: Crude membrane fractions were prepared from the brain; from tissue; host or cells: Wistar rat whole brain, crude membrane fraction
T1 sequence (P20272 whole entry): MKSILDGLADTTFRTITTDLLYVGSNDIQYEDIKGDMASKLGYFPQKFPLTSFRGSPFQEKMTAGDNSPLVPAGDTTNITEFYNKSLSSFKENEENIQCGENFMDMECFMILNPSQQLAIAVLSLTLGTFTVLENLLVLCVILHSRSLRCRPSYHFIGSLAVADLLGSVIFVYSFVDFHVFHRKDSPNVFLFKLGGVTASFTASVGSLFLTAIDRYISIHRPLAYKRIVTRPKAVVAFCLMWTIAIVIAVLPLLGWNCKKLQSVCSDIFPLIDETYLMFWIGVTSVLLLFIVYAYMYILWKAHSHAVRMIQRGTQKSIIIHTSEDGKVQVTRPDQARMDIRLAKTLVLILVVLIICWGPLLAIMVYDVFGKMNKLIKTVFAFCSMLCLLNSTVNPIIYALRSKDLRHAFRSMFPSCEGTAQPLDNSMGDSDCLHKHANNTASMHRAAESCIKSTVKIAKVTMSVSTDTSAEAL
Briefly: [3H]WIN55,212-2 radioligand competition binding assay in rat brain membrane homogenate. Conditions: read-out: Ki [3H]WIN55,212-2 binding, 5 nM [3H]WIN55,212-2, ± SEM, n.b. = no binding of ligands was observed.

Assay [2] relates to mice. Briefly: Feeding test (food intake). In kind it is in vivo, mouse. Conditions: 10 mg/kg i.p., 1-h test, vs vehicle. On the procedure:
The tested compounds were injected i.p. (10 mg/kg), and after leaving for 30 min to allow the drug assimilation, mice were placed into individual cages with access to a predefined amount of their standard lab chow (2 g) for the 1-h test.
In Vivo Biological Assays
The international and national law and policies approved by Italian Ministry of Health were used to comply with all animal care and experimental procedures. Animal studies were advised in compliance with the ARRIVE guidelines and with the recommendations made by EU Directive 2010/63/EU for animal experiments and the Basel declaration including the 3Rs concept. CD-1 male mice (10-14 weeks of age, 25-30 g of weight) were bought from Charles River (Milan, Italy). Shortly after their arrival and for at least one week, they were kept in an animal care facility under controlled standard conditions of temperature (21 ± 1 °C), light (from 7:00 AM to 7:00 PM), and relative humidity (60 ± 10%). Access to drinking water and food was assured. All procedures were performed to decrease the number of animals used (n = 7 per group) and their distress.
The test was carried out as previously described. At 24 h before the start of a feeding test, all food was removed from the home cages of mice to be tested. The next day and at least 1 h before the feeding test began, the mice were transported to the laboratory. On test days, the animals were placed in the home cages for 30 min of drug assimilation, during which food was not available. Then compounds were intraperitoneally administered (10 mg/kg). Mice were transferred into transparent and individual plastic cages with thick white paper lining the bottom and access to a pre-measured amount of their regular lab chow (2 gr) for the 1-h test. At the end of 1 h, mice were repositioned into their home cage. The amount of food left in the trial cage, including crumbs, was measured, and the amount consumed was calculated.
Feeding trials normally happened on Tuesdays and Fridays between 12:00 and 14:00 h. […]

In assay [3] the test system is mice. Briefly: Zymosan-induced paw edema. It counts as in vivo, mouse. Here is the method:
Drugs were administered s.c. in the dorsal surface of the right hind paw at the dose of 100 μg/20 μL, 15 min before zymosan. […]
testing. […] Then, the compounds were
Compounds were prepared by freshly diluting
Then, these solutions were injected for
The total time the animal spent licking or biting its paw was calculated.
Then, paw edema was calculated as formerly
Paw volume was quantified using a
Data Analysis and Statistics
Statistically significant differences between
Data were considered statistically
The data and statistical analyses respected the recommendations on experimental design and analysis.

Regarding `CNC(=O)[C@@H](NC(=O)c1nn(-c2ccc(Cl)cc2)c(-n2cccc2)c1C)C(C)(C)C` [Compound 34, RS2691-tLeu-NHCH3], the Ki in assay [1] came out at 6.9 ± 1.8 nM. Moreover, in assay [2], the food intake entry is recorded as “increase food intake; also recorded: increased the food intake; also recorded: significant orexic effect”. The “anti-inflammatory effect on zymosan-induced paw volume increase” value in assay [3] (100 μg/20 μL s.c., 15 min before zymosan) is given as “significantly reduce paw volume increase induced by zymosan from 1 to 4 h; also recorded: reduced the paw volume increase from 1 to 4 h”. Further, the “percentage of paw volume in zymosan-induced hindlimb edema” value in assay [3] (s.c. injection, for 24 h) is “below 75%”.

As a reminder, the Ki is a dissociation constant, usually derived from enzyme kinetics or from competition with a known ligand.
